Consider ten molecules from US11945826B2, “Hydroxypyridoxazepines as NRF2 activators” (GLAXOSMITHKLINE INTELLECTUAL PROPERTY DEVELOPMENT LIMITED, priority 2019, dated 2024).

Broadly, the EC50 is the concentration giving half of the maximal effect.

Assay [1] relates to murine TAC model. The assay is described as follows: Mouse Transverse Aortic Constriction (TAC) Left Ventricular Pressure Overload Model. The conditions noted are these: 10-week mouse TAC, Example 1 at 1, 3, 10 mg/kg/d, Example B at 100 mg/kg/d. The assay is classed as in vivo, C57BLK/6J mice. The source says:
Male C57BLK/6J mice (10-12 weeks old) were individually housed and acclimated to a standard powdered rodent diet for 1-3 days. Water was offered ad libitum throughout the study. Mice were initially anesthetized in a chamber using an 3% isoflurane with oxygen (1.0 L/min), and then maintained at 1.5% via nose cone (without intubation). A small incision (˜5 mm) was made just left of midline and just above the rib cage at the level of the suprasternal notch. The muscle tissue was retracted to expose the area above the pleural cavity. The lobes of the thymus were separated and retracted to expose the aortic arch. Fine surgical forceps with blunted tips were used to expose a region above and below the aorta. A micro blunt hook tied with 7-0 silk surgical suture was looped under the aorta and the suture pulled through. The suture was tied-off against a small piece of blunted 27 G needle and the needle was then removed creating the aortic constriction (a 60-70% constriction of the lumen). The incision was closed using 6-0 silk suture for the muscle layer, then the skin with Medbond. The sham procedure was identical without ligation of aorta. Depending on the individual study designs, drug administration began either on the day of surgery, or 1-2 weeks after surgery (detailed in figure legends) and continued until the end of study. Compounds were administered in the mouse chow unless otherwise noted in FIG. 12 legends. TAC study duration was either 6 weeks or 10 weeks in duration. All TAC study endpoints were collected at the end of study. Following heart dissections, samples were either snap frozen in liquid nitrogen and stored at −80° C. or placed in 10% neutral buffered formalin until analysis.
Echocardiography: For mouse TAC studies, echocardiography was performed on a Vevo 2100 high frequency imaging system. Animals were anesthetized with 2-3% isoflurane and sedation maintained with 1% isoflurane with animals on a heating pad. B-mode imaging of three cardiac cycles was used to assess ejection fraction (EF), end diastolic volume (EDV), end systolic volume (ESV), LV mass, and heart rate. ECG was used to measure heart rate during the echocardiography procedure.
NADPH dehydrogenase [quinone]-1 (NQO1) activity: Left ventricular (LV) tissue NQO1 activity was determined using an NQO1 assay kit per manufacturer's protocol (Abcam, Cambridge MA)
The KEAP1 blockers/Nrf2 activators, (R)-3-(1,4-dimethyl-1H-benzo[d][1,2,3]triazol-5-yl)-3-(3-(((R)-2-ethyl-7-hydroxy-2,3-dihydropyrido[2,3-f][1,4]oxazepin-4(5H)-yl)methyl)-4-methylphenyl)propanoic acid, hydrochloride, or a tautomer thereof (Example 1) (in dose-response) and (S)-3-(1,4-dimethyl-1H-benzo[d][1,2,3]triazol-5-yl)-3-(3-(((R)-2-ethyl-2,3-dihydropyrido[3,4-f][1,4]oxazepin-4(5H)-yl)methyl)-4-methylphenyl)-2,2-dimethylpropanoic acid (Example B) were evaluated in a 10-week mouse TAC model of severe hemodynamic stress.
FIG. 12 depicts the effect of the KEAP1-kelch domain blockers/Nrf2 activators (R)-3-(1,4-dimethyl-1H-benzo[d][1,2,3]triazol-5-yl)-3-(3-(((R)-2-ethyl-7-hydroxy-2,3-dihydropyrido[2,3-f][1,4]oxazepin-4(5H)-yl)methyl)-4-methylphenyl)propanoic acid, hydrochloride, or a tautomer thereof (Compound of Example 1) and (S)-3-(1,4-dimethyl-1H-benzo[d][1,2,3]triazol-5-yl)-3-(3-(((R)-2-ethyl-2,3-dihydropyrido[3,4-f][1,4]oxazepin-4(5H)-yl)methyl)-4-methylphenyl)-2,2-dimethylpropanoic acid (Compound B) on cardiac function, remodeling, and NQO1 enzyme activity in the murine 10-week TAC model. All compounds were dosed in chow beginning 2-weeks after TAC. […]

The subject of assay [2] is Nrf2 (NQO1 activity in BEAS-2B cells). The assay is described as follows: BEAS-2B NQO1 MTT Assay. The assay is classed as cell-based. The conditions noted are these: Homo sapiens, 48 hours, NQO1 specific activity induction, read-out: EC50. An excerpt:
NAD(P)H:quinone oxidoreductase 1 (NQO1), also called DT diaphorase, is a homodimeric FAD-containing enzyme that catalyzes obligatory NAD(P)H-dependent two-electron reductions of quinones and protects cells against the toxic and neoplastic effects of free radicals and reactive oxygen species arising from one-electron reductions. The transcription of NQO1 is finely regulated by Nrf2, and thus NQO1 activity is a good marker for Nrf2 activation. On day one, frozen BEAS-2B cells (ATCC) were thawed in a water bath, counted, and re-suspended at a concentration of 250,000 cells/mL. Fifty microliters of cells were plated in 384 well black clear-bottomed plates. Plates were incubated at 37° C., 5% CO2 overnight. On day two, plates were centrifuged and 50 nL of compound or controls were added to the cells. Plates were then incubated at 37° C., 5% CO2 for 48 hours. On day four, medium was aspirated from the plate and crude cell lysates were made by adding 13 μL of 1× Cell Signalling Technologies lysis buffer with 1 Complete, Mini, EDTA-free Protease Inhibitor Tablet (Roche) for each 10 mL of lysis buffer. After lysis plates were incubated for 20 minutes at room temperature. Two microliters of lysate were removed for use in Cell Titer Glo assay (Promega) and MTT cocktail was prepared (Prochaska et. al. 1998) for measurement of NQO1 activity. Fifty microliters of MTT cocktail was added to each well, plate was centrifuged, and analyzed on an Envision plate reader (Perkin Elmer) using Absorbance 570 nm label for 30 minutes. Product formation was measured kinetically and the pEC50 of NQO1 specific activity induction was calculated by plotting the change in absorbance (Delta OD/min) versus the log of compound concentration followed by 3-parameter fitting.
EC50s<1 nM (+++++), EC50s 1 nM-10 nM (++++), EC50s 10 nM-100 nM (+++), EC50s 100 nM-1 μM (++), EC50s 1 μM-10 μM (+).

On to `CC[C@@H]1CN(Cc2cc([C@@H](c3ccc4c(nnn4C)c3C)C(C)(C)C(=O)O)ccc2C)Cc2cnccc2O1` [Example B, (S)-3-(1,4-dimethyl-1H-benzo[d][1,2,3]triazol-5-yl)-3-(3-(((R)-2-ethyl-2,3-dihydropyrido[3,4-f][1,4]oxazepin-4(5H)-yl)methyl)-4-methylphenyl)-2,2-dimethylpropanoic acid, reference compound], for which, in assay [1] (daily in chow for eight weeks from 2 weeks after TAC), the “cardiac function as assessed by ejection fraction” value is reported as “full normalization of cardiac function”. Further, in assay [1] (daily in chow for eight weeks), the “NAD(P)H quinone oxidoreductase 1 (NQO1) in the LV” value is “significant dose-related elevations”; the “cardiac hypertrophy (left ventricular mass)” value is “did not influence cardiac hypertrophy”; the “unloading the heart (blood pressure) or heart rate” value was “nor did the ejection fraction change occur by unloading the heart (i.e., lowering blood pressure) or increasing the heart rate”.

As for `Cc1ccc([C@@H](c2ccc3c(nnn3C)c2C)C(C)(C)C(=O)O)cc1CN1Cc2nc(O)ccc2O[C@@H](C(F)(F)F)C1` [Example 21, (S)-3-(1,4-dimethyl-1H-benzo[d][1,2,3]triazol-5-yl)-3-(3-(((R)-7-hydroxy-2-(trifluoromethyl)-2,3-dihydropyrido[2,3-f][1,4]oxazepin-4(5H)-yl)methyl)-4-methylphenyl)-2,2-dimethylpropanoic acid], the EC50 in assay [2] was 0.01 to 0.1 µM.

`Cc1ccc([C@@H](CC(=O)O)c2ccc3c(nnn3C)c2C)cc1CN1Cc2nc(O)ccc2OC2(CCC2)C1` [Example 29]: the EC50 in assay [2] lay within 0.01 to 0.1 µM.

As for `Cc1ccc([C@@H](CC(=O)O)c2ccc3c(nnn3C)c2C)cc1CN1Cc2nc(O)ccc2OC(C)(C)C1` [Example 5, (R)-3-(1,4-dimethyl-1H-benzo[d][1,2,3]triazol-5-yl)-3-(3-((7-hydroxy-2,2-dimethyl-2,3-dihydropyrido[2,3-f][1,4]oxazepin-4(5H)-yl)methyl)-4-methylphenyl)propanoic acid], in assay [2], the EC50 lay in the range of 0.01 to 0.1 µM.

For the molecule `CC[C@]1(C)CN(Cc2cc([C@@H](CC(=O)O)c3ccc4c(nnn4C)c3C)ccc2C)Cc2nc(O)ccc2O1` [Example 26, (R)-3-(1,4-dimethyl-1H-benzo[d][1,2,3]triazol-5-yl)-3-(3-(((R)-2-ethyl-7-hydroxy-2-methyl-2,3-dihydropyrido[2,3-f][1,4]oxazepin-4(5H)-yl)methyl)-4-methylphenyl)propanonic acid], the concentration for a half-maximal effect (EC50) in assay [2] was 0.1 to 1 µM.

As for `Cc1ccc([C@@H](CC(=O)O)c2ccc3c(nnn3C)c2C)cc1CN1Cc2nc(O)ccc2O[C@H](C(C)C)C1` [Example 3, (R)-3-(1,4-dimethyl-1H-benzo[d][1,2,3]triazol-5-yl)-3-(3-(((R)-7-hydroxy-2-isopropyl-2,3-dihydropyrido[2,3-f][1,4]oxazepin-4(5H)-yl)methyl)-4-methylphenyl)propanoic acid], the EC50 in assay [2] fell in the range of 0.001 to 0.01 µM.

With `Cc1ccc([C@@H](CC(=O)O)c2ccc3c(nnn3C)c2C)cc1CN1Cc2nc(O)ccc2O[C@@H](C(C)C)C1` [Example 2, (R)-3-(1,4-dimethyl-1H-benzo[d][1,2,3]triazol-5-yl)-3-(3-(((S)-7-hydroxy-2-isopropyl-2,3-dihydropyrido[2,3-f][1,4]oxazepin-4(5H)-yl)methyl)-4-methylphenyl)propanoic acid], in assay [2], the concentration giving a half-maximal response (EC50) lay in the range of 0.1 to 1 µM.

Take `Cc1ccc([C@@H](c2ccc3c(nnn3C)c2C)C(C)(C)C(=O)O)cc1CN1Cc2nc(O)ccc2OC(C)(C)C1` [Example 17, (S)-3-(1,4-dimethyl-1H-benzo[d][1,2,3]triazol-5-yl)-3-(3-((7-hydroxy-2,2-dimethyl-2,3-dihydropyrido[2,3-f][1,4]oxazepin-4(5H)-yl)methyl)-4-methylphenyl)-2,2-dimethylpropanoic acid]: the half-maximal effective concentration (EC50) in assay [2] was in the range of 0.001 to 0.01 µM.

In the case of `Cc1ccc([C@@H](c2ccc3c(nnn3C)c2C)C(C)(C)C(=O)O)cc1CN1Cc2nc(O)ccc2O[C@H](C(F)(F)F)C1` [Example 19, (S)-3-(1,4-dimethyl-1H-benzo[d][1,2,3]triazol-5-yl)-3-(3-(((S)-7-hydroxy-2-(trifluoromethyl)-2,3-dihydropyrido[2,3-f][1,4]oxazepin-4(5H)-yl)methyl)-4-methylphenyl)-2,2-dimethylpropanoic acid], in assay [2], the EC50 was below 0.001 µM.

`CC[C@H]1CN(Cc2cc([C@H](CC(=O)O)c3ccc4c(nnn4C)c3C)ccc2C)Cc2nc(O)ccc2O1` [Example 12, (S)-3-(1,4-dimethyl-1H-benzo[d][1,2,3]triazol-5-yl)-3-(3-(((S)-2-ethyl-7-hydroxy-2,3-dihydropyrido[2,3-f][1,4]oxazepin-4(5H)-yl)methyl)-4-methylphenyl)propanoic acid]: the EC50 in assay [2] lay in the range of 1 to 10 µM.
